Data as given in ChEMBL document CHEMBL3991601, “The target landscape of clinical kinase drugs” (Science, 2017).
Where a name gives a salt, the structure may show the parent alone. Calls of active or inactive are those of the source. Cut-off read from the data, not from the text of the source, for most assays here: actives have a measured Kd and inactives only a lower limit.

Experiments:
[1] = molecular target: T1, Serine/threonine-protein kinase TAO1 (Homo sapiens, UniProt Q7L7X3)
T1 sequence (Q7L7X3 whole entry): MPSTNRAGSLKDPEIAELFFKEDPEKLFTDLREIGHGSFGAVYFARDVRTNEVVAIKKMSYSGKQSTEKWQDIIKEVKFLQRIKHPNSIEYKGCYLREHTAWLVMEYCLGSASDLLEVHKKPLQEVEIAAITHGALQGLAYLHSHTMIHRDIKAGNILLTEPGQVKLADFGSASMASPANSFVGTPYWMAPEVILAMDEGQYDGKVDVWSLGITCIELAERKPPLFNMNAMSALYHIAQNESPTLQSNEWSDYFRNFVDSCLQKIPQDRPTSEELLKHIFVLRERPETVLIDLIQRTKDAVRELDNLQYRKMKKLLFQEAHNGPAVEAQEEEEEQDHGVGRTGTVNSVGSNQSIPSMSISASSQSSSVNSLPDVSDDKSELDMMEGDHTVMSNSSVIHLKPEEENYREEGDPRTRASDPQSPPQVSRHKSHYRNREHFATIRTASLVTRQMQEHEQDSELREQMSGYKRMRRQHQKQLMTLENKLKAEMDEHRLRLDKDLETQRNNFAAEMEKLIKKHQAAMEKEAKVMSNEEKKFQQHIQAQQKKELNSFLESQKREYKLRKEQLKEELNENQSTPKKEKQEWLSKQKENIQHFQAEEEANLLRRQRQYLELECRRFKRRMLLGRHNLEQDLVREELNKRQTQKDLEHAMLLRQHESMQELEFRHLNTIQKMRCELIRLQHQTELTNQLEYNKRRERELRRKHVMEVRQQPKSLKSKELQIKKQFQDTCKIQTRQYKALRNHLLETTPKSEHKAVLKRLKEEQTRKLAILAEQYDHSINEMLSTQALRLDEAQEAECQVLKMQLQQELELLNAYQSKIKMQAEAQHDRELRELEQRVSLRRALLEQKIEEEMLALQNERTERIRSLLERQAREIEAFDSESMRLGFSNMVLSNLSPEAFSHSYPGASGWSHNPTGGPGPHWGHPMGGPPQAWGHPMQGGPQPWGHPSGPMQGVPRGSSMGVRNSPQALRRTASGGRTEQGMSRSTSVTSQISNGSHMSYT

[2] = molecular target: Insulin receptor (Homo sapiens, UniProt P06213)
[3] = molecular target: T2, Serine/threonine-protein kinase 3 (Homo sapiens, UniProt Q13188)
T2 sequence (Q13188 whole entry): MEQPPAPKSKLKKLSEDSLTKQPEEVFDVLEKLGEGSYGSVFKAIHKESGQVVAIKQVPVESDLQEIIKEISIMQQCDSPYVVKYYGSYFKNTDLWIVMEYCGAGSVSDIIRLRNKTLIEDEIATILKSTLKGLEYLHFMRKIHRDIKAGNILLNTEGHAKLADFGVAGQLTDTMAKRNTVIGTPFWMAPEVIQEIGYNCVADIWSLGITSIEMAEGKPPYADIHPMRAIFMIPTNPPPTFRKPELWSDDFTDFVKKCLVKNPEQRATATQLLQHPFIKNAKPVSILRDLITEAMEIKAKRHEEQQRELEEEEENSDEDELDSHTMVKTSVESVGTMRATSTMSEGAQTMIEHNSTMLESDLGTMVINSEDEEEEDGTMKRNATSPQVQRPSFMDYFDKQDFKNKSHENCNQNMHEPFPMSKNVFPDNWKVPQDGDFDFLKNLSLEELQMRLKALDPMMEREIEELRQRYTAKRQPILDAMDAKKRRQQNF

[4] = molecular target: T3, Serine/threonine-protein kinase ULK1 (Homo sapiens, UniProt O75385)
T3 sequence (O75385 whole entry): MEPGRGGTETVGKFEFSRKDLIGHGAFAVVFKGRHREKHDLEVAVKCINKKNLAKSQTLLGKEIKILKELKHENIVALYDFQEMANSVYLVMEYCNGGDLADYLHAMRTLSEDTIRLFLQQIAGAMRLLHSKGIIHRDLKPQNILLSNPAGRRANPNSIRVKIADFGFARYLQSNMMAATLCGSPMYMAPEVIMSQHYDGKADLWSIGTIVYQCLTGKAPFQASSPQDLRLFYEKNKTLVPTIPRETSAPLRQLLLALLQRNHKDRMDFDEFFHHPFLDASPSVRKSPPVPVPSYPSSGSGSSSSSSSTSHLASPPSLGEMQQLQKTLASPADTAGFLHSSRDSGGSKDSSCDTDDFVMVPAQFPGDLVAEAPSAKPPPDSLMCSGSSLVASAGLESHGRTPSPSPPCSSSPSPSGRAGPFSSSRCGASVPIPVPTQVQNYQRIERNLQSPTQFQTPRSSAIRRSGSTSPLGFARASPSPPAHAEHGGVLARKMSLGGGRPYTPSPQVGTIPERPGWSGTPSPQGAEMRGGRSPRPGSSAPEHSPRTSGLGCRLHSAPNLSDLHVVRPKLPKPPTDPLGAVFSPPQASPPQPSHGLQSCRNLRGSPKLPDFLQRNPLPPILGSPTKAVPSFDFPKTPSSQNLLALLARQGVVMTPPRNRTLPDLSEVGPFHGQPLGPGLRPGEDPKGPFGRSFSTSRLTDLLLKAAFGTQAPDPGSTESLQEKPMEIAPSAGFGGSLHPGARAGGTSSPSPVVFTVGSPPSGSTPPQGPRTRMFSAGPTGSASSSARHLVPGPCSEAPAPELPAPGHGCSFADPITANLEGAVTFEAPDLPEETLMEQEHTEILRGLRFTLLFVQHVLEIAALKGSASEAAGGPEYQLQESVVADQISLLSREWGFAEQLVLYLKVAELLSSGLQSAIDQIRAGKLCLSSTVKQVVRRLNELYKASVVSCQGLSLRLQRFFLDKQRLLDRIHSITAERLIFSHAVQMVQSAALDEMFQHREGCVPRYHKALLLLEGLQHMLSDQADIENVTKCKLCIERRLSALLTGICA
Note: in the data inactive means no Kd found up to 30 µM.

Sequence of Insulin receptor (P06213 28-758 limits assumed): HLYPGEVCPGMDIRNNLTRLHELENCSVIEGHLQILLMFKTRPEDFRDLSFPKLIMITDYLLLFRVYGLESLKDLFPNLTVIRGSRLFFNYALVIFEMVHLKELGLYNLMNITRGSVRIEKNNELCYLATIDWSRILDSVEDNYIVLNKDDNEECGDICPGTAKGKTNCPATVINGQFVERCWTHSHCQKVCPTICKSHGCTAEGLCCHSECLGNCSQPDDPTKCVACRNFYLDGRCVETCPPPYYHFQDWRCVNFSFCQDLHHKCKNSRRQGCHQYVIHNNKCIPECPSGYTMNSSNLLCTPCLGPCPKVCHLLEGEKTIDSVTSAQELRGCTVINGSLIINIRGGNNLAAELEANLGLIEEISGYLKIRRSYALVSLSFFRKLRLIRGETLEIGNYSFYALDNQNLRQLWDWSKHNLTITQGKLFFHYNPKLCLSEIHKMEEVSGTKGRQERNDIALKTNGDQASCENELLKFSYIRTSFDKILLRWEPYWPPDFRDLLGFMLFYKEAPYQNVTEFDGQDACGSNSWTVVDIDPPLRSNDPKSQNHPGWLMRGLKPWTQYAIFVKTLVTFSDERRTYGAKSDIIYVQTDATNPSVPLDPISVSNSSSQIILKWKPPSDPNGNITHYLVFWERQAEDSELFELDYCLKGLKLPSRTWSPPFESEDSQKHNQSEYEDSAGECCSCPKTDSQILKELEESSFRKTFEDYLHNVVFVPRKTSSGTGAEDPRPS
Sequence of Insulin receptor (P06213 763-1382 limits assumed): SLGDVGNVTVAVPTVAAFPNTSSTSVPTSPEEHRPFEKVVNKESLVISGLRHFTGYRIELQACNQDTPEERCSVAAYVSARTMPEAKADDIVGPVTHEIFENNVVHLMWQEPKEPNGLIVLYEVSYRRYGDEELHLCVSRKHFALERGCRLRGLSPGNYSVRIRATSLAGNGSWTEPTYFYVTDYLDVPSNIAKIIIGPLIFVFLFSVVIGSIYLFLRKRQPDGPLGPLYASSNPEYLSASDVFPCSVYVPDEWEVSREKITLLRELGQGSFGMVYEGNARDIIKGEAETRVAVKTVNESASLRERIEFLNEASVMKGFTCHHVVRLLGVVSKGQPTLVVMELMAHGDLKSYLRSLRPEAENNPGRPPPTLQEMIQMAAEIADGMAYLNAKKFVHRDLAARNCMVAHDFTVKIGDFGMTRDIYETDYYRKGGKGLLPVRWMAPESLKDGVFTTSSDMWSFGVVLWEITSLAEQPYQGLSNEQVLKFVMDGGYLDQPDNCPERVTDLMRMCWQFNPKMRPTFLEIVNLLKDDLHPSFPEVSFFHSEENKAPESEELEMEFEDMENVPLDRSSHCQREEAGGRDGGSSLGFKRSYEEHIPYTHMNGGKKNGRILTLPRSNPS

Row | SMILES | Kd [1] | Kd [2] | Kd [3] | Kd [4]
1 | C[C@@H](Oc1cc(C(=O)Nc2ccc(C(=O)N3CCN(C)CC3)cc2)nnc1N)c1c(Cl)ccc(F)c1Cl | > 30 µM (inactive) | > 30 µM (inactive) | > 30 µM (inactive) | > 30 µM (inactive)
2 | C[C@H]1CNCCCN1S(=O)(=O)c1cccc2cncc(F)c12 | > 30 µM (inactive) | > 30 µM (inactive) | > 30 µM (inactive) | > 30 µM (inactive)
3 | CC(=O)c1cnc2ccc(-c3cc(Cl)c(O)c(Cl)c3)nc2c1N[C@H]1CC[C@H](CN(C)C)CC1 | 0.017 µM (active) | > 30 µM (inactive) | 0.07 µM (active) | > 30 µM (inactive)
4 | CCNC(=O)C#Cc1ccc2c(c1)NC(=O)/C2=C(\Nc1ccc(CN(C)C)cc1)c1ccccc1 | > 30 µM (inactive) | > 30 µM (inactive) | 5.05 µM (active) | > 30 µM (inactive)
5 | C=CC(=O)N1CCC[C@H](n2c(=O)n(-c3ccc(Oc4ccccc4)cc3)c3c(N)ncnc32)C1 | > 30 µM (inactive) | > 30 µM (inactive) | > 30 µM (inactive) | > 30 µM (inactive)
6 | Cc1nc2cc(-c3nn(C(C)C)c4ncnc(N)c34)ccc2o1 | 1.09 µM (active) | > 30 µM (inactive) | > 30 µM (inactive) | > 30 µM (inactive)
7 | COCc1c(-c2ccc(NC(=O)Nc3cc(C(F)(F)F)ccc3F)c(F)c2)c2c(N)ncnn2c1CN1CCOCC1 | > 30 µM (inactive) | > 30 µM (inactive) | > 30 µM (inactive) | > 30 µM (inactive)
8 | Nc1ncnc2c1c(-c1cccc(OCc3ccccc3)c1)cn2[C@H]1C[C@@H](CN2CCC2)C1 [AEW-541] | > 30 µM (inactive) | 4.04 µM (active) | > 30 µM (inactive) | > 30 µM (inactive)
9 | COc1cc(Nc2ncc3c(n2)-c2ccc(Cl)cc2C(c2c(F)cccc2OC)=NC3)ccc1C(=O)O [ALISERTIB] |  |  |  | > 30 µM (inactive)
10 | Cc1nc(NC(=O)N2CCC[C@H]2C(N)=O)sc1-c1ccnc(C(C)(C)C(F)(F)F)c1 [ALPELISIB] | > 30 µM (inactive) | > 30 µM (inactive) | > 30 µM (inactive) | > 30 µM (inactive)
11 | Cc1csc(-c2nnc(Nc3ccc(Oc4ncccc4-c4ccnc(N)n4)cc3)c3ccccc23)c1 [AMG-900] | 1.9 µM (active) | > 30 µM (inactive) | > 30 µM (inactive) | 0.19 µM (active)
12 | O=C(Nc1c[nH]nc1-c1nc2cc(CN3CCOCC3)ccc2[nH]1)NC1CC1 [AT-9283] | 2.22 µM (active) | > 30 µM (inactive) | > 30 µM (inactive) | > 30 µM (inactive)
13 | C=CC(=O)Nc1cc2c(Nc3ccc(F)c(Cl)c3)ncnc2cc1C#CC(C)(C)N1CCN(C)CC1 [AV-412 FREE BASE] | > 30 µM (inactive) | > 30 µM (inactive) | > 30 µM (inactive) | > 30 µM (inactive)
14 | COc1cc([C@@H]2c3cc4c(cc3[C@H](O)[C@H]3COC(=O)[C@@H]23)OCO4)cc(OC)c1OC [AXL-1717] | > 30 µM (inactive) | > 30 µM (inactive) | > 30 µM (inactive) | 
15 | NC(=O)Nc1cc(-c2cccc(F)c2)sc1C(=O)N[C@H]1CCCNC1 [AZD-7762] | > 30 µM (inactive) | > 30 µM (inactive) |  | 0.115 µM (active)
16 | Cc1cc(C(=O)NOCCO)c(Nc2ccc(I)cc2F)n(C)c1=O [AZD-8330] | > 30 µM (inactive) | > 30 µM (inactive) | > 30 µM (inactive) | > 30 µM (inactive)
17 | Cn1cnc2c(F)c(Nc3ccc(Br)cc3F)c(C(=O)NOCCO)cc21 [BINIMETINIB] | > 30 µM (inactive) | > 30 µM (inactive) | > 30 µM (inactive) | > 30 µM (inactive)
18 | CCn1c(C(=O)N(C2CC2)C2CC2)cc2c3c(ncn3C)c(Nc3cc(C)n(C)n3)nc21 [BMS-911543] | > 30 µM (inactive) | > 30 µM (inactive) | > 30 µM (inactive) | > 30 µM (inactive)
19 | COc1cc2ncnc(Oc3cccc(NC(=O)Nc4cc(C(C)(C)C(F)(F)F)on4)c3)c2cc1OC [CEP-32496] | > 30 µM (inactive) |  | > 30 µM (inactive) | > 30 µM (inactive)
20 | Cc1cc(Nc2ncc(Cl)c(Nc3ccccc3S(=O)(=O)C(C)C)n2)c(OC(C)C)cc1C1CCNCC1 [CERITINIB] | > 30 µM (inactive) |  | > 30 µM (inactive) | > 30 µM (inactive)
21 | COc1c(OCCCN2CCOCC2)ccc2c1N=C(NC(=O)c1cnc(N)nc1)N1CCN=C21 [COPANLISIB] | > 30 µM (inactive) | > 30 µM (inactive) | > 30 µM (inactive) | > 30 µM (inactive)
22 | COCC(=O)NC/C=C/c1ccc2ncnc(Nc3ccc(Oc4ccc(C)nc4)c(C)c3)c2c1 [CP-724714] | > 30 µM (inactive) | > 30 µM (inactive) | > 30 µM (inactive) | > 30 µM (inactive)
23 | C#Cc1cccc(Nc2ncnc3cc(OC)c(OCCCCCCC(=O)NO)cc23)c1 [CUDC-101] | > 30 µM (inactive) | > 30 µM (inactive) | > 30 µM (inactive) | > 30 µM (inactive)
24 | CCS(=O)(=O)N1CCN(c2ccc(Nc3ncc(C(N)=O)c(NC4CC4)n3)cc2)CC1 [Cerdulatinib Hydrochloride] | 2.17 µM (active) | > 30 µM (inactive) | 0.062 µM (active) | 2.82 µM
25 | CC(C)(C)c1nc(-c2cccc(NS(=O)(=O)c3c(F)cccc3F)c2F)c(-c2ccnc(N)n2)s1 [DABRAFENIB] |  | > 30 µM (inactive) |  | 0.188 µM (active)
26 | CCn1cc(-c2ccnc3[nH]c(-c4cccc(CN(C)C)c4)cc23)c(-c2ccc(NC(=O)N(C)C)cc2)n1 [GSK-1070916] |  |  | > 30 µM (inactive) | > 30 µM (inactive)
27 | O=C(Nc1cc(C(F)(F)F)cc(C(F)(F)F)c1)c1cc(Cl)ccc1O [IMD-0354] | > 30 µM (inactive) | > 30 µM (inactive) |  | > 30 µM (inactive)
28 | CNC(=O)c1nn(C)c2c1C(C)(C)Cc1cnc(Nc3ccc(N4CCN(C)CC4)cc3)nc1-2 [MILCICLIB] |  | > 30 µM (inactive) | > 30 µM (inactive) | 1.75 µM (active)
29 | Cc1[nH]c(/C=C2\C(=O)Nc3ccccc32)c(C)c1CCC(=O)O [ORANTINIB] |  |  |  | > 30 µM (inactive)
30 | CC(=O)NCC(=O)N1[C@@H]2CC[C@H]1c1ccc(Nc3ncc(C(F)(F)F)c(NC4CCC4)n3)cc12 [PF-03814735] |  |  |  | 0.028 µM (active)
